Consider 2 compounds from patent US20050215490A1, “Polyene polyketides and methods of treating bacterial infections” (Ecopia BioSciences, Inc., priority 2003, published 2005).

The MIC is the lowest concentration that inhibits growth of the organism.

The subject of series [1] is Bacillus megaterium (ATCC™ 14581). In words: MIC, broth microdilution (NCCLS M7-A5). It counts as cell-based. The settings on record: Priestia megaterium, ATCC14581; B. megaterium ATCC 14581; Mueller-Hinton; 35° C., 18 hours; read-out: MIC. The method, then: (§1) Antibacterial activity of Compounds 1 and 2 (Table 4) was measured by determining the minimal inhibitory concentration (MIC) necessary to obtain a complete inhibition of bacteria growth in eight indicator strains, namely Staphylococcus aureus (ATCC™ 6538P), Staphylococcus aureus MRS3 (ATCC™ 700699), Staphylococcus epidermidis (ATCC™ 12228), Bacillus subtilis (ATCC™ 23857), Bacillus megaterium (ATCC™ 14581), Enterococcus faecalis VRE-1 (ATCC™ 29212), Enterococcus faecalis VRE-2 (ATCC™ 51299) and Micrococcus luteus (ATCC™ 9341). Indicator strains preparation and MIC determination were performed according to the National Committee for Clinical Laboratory Standards (NCCLS) guideline M7-A5 Methods for Dilution Antimicrobial Susceptibility Tests for Bacteria That Grow Aerobically; Approved Standard-Fifth Edition. (NCCLS document M7-A5, ISBN 1-56238-394-9; NCCLS, 940 West Valley Road, Suite 1400, Wayne, Pa. 19087-1898 USA), the content of which is incorporated herein by reference.
(§2) Compounds 1 and 2 were prepared as 100× stock solution in DMSO, with concentrations ranging from 3.2 mg/ml to 0.00625 mg/ml (a two-fold dilution series over […]). An aliquot of each 100× stock solution was diluted 50-fold in test medium described below to give a set of ten (10) 2× solutions ranging from 64 to 0.125 μg/mL. 50 μl of each of the ten 2× solutions was aliquoted into the corresponding well of a 12-well row, with the final well reserved for medium alone control. Each test was made in duplicate.
(§3) Vancomycin (Sigma™) used as positive control compounds, was prepared as 2× stock solutions in sterile, double-distilled water (ddH2O) ranging from 64 μg/ml to […] (a two-fold dilution series over 10 points). An aliquot of 50 μl corresponding to each concentration (at 2×) was then transferred to 96-well microplates to obtain a series of eleven two-fold dilutions.
(§4) An isolated colony of each of the eight indicator strains was used to inoculate tubes containing 3 ml of test medium. Mueller-Hinton test medium was used for Staphylococcus aureus (ATCC™ 6538P), Staphylococcus aureus MRS3 (ATCC™ 700699), Staphylococcus epidermidis (ATCC™ 12228), Bacillus subtilis (ATCC™ 23857), Bacillus megaterium (ATCC™ 14581) and Micrococcus luteus (ATCC™ 9341) indicator strains, and BHI (Brain-Heart Infusion broth) test medium was used for Enterococcus faecalis VRE-1 (ATCC™ 29212) and Enterococcus faecalis VRE-2 (ATCC™ 51299) indicator strains. Cells were grown overnight at 28° C. with shaking. Inoculum density for each indicator strain was adjusted to OD600=0.1 in 5 ml 0.85% saline, then further diluted 1/100 in appropriate medium. 50 μl of the final dilution (in test medium) of each indicator strain was added to each well of a 12-well row. This brings the final dilution of the test article or control compound in solution to 1×. The final inoculum is approximately 5×10^5 CFU/ml.
(§5) The indicator strains were incubated with 11 concentrations of each of Compounds 1 and 2, Vancomycin (Sigma™) control compound and one media alone control. For MIC determination, assay plates were incubated at 35° C. for 18 hours.
A general note: In broth dilution the organism is exposed to a series of concentrations in liquid medium.

Series [2] has as its system Bacillus subtilis (ATCC™ 23857). In words: MIC, broth microdilution (NCCLS M7-A5). The series is classed as cell-based. Conditions: ATCC23857, B. subtilis ATCC 23857, Mueller-Hinton, 35° C., 18 hours, read-out: MIC. The method, then:
as §1, §2, §3, §4, §5

Series [3] has as its system Enterococcus faecalis VRE-1 (ATCC™ 29212). In words: MIC, broth microdilution (NCCLS M7-A5). The settings on record: E. faecalis ATCC 29212, BHI, 35° C., 18 hours, read-out: MIC. The series is classed as cell-based. The method, then: as §1, §2, §3, §4, §5
The subject of series [4] is Enterococcus faecalis VRE-2 (ATCC™ 51299). In words: MIC, broth microdilution (NCCLS M7-A5). It counts as cell-based. Conditions: E. faecalis ATCC 51299, BHI, 35° C., 18 hours, read-out: MIC. The method, then: as §1, §2, §3, §4, §5
The subject of series [5] is Micrococcus luteus (ATCC™ 9341). In words: MIC, broth microdilution (NCCLS M7-A5). It counts as cell-based. The settings on record: ATCC9341, M. luteus ATCC 9341, Mueller-Hinton, 35° C., 18 hours, read-out: MIC. As to the method: as §1, §2, §3, §4, §5
The test system of series [6] is Staphylococcus aureus (ATCC™ 6538P). In words: MIC, broth microdilution (NCCLS M7-A5). It counts as cell-based. The settings on record: read-out: MIC. The method, then: as §1, §2, §3, §4, §5
Series [7] relates to Staphylococcus aureus MRS3 (ATCC™ 700699). In words: MIC, broth microdilution (NCCLS M7-A5). It counts as cell-based. Conditions: read-out: MIC. As to the method:
as §1, §2, §3, §4, §5

In series [8] the test system is Staphylococcus epidermidis (ATCC™ 12228). In words: MIC, broth microdilution (NCCLS M7-A5). It counts as cell-based. Conditions: read-out: MIC. As to the method: as §1, §2, §3, §4, §5
Series [9] concerns Staphylococcus aureus NRRL B-313 (ATCC™ 6538P). In words: MIC at different pH. The series is classed as cell-based. Conditions: S. aureus ATCC 6538P. As to the method:
Antibacterial activitiy of Compounds.3, 4, 5, 6 and 7 are accomplished using the same method in a panel of bacterial strains and Vancomycin as positive control.
Antibacterial efficacy of Compounds 1, 2, 3, 4, 5 and 6 on bacterial strain Staphylococcus aureus NRRL B-313 (ATCC™ 6538P) was determined at different pH concentrations.

The subject of series [10] is CD-1 female mice. In words: in vivo. Conditions: CD-1, mouse. As to the method: A. Toxicity: Acute toxicities were determined using CD-1 female mice (supplied by Charles River Laboratories, Wilmington, Mass.) having a bodyweight of 18-25 g, and about 6 weeks of age. Compounds 1 and 2 at doses ranging from 1 to 70 mg/kg (formulated in 20% propylene glycol/water for a total volume of 10 μL/g of weight) were administered intraperitoneal (i.p.) and intravenous (i.v.) to groups of 5 mice (5 mice per concentration, per mode of administration). Two groups of 3 mice were injected with vehicle only. Mice were observed immediately after injection, within 4 hours and once a day for the subsequent days. Acute toxicity studies of Compound 1 in mice indicated no observable effect and high dose tolerability: 70 mg/kg intraperitoneal and 50 mg/kg intravenous (an MTD of 250 mg/kg was also determined by oral administration). […] In vitro Haemolytic activity results are also shown in Table 7, along with the in vivo toxicity and efficacy of Compound 1.

[11] abbreviates: ATCC6538P, S. aureus ATCC 6538P, Mueller-Hinton, 35° C., 18 hours.
The mark [12] stands for this setting: ATCC700699, S. aureus ATCC 700699, Mueller-Hinton, 35° C., 18 hours.
[13] abbreviates: ATCC12228, S. epidermidis ATCC 12228, Mueller-Hinton, 35° C., 18 hours.

≈ marks a conversion by molar mass, not a printed value. Read-outs that look alike come from different tables or passages of the source.

With `CC(=CC=CC=CC=CC=CC(C)C(OC1OC(C(=O)O)C(O)C(O)C1O)C(C)=CC(C)CCCC=CC(C)CC=CCCCN(C)C(=N)N)C(=O)NC1=C(O)CCC1=O` (stereo not shown) [Compound 1, 3,4,5-trihydroxy-6-[1-[11-(2-hydroxy-5-oxocyclopent-1-enylcarbamoyl)-1-methyldodeca-2,4,6,8,10-pentaenyl]-2,4,10-trimethyl-16-(N-methyl-guanidino)-hexadeca-2,8,12-trienyloxy]-tetrahydropyran-2-carboxylic acid], the MIC is 1 µg/mL (≈ 1.19 µM) in [1]; 1 µg/mL (≈ 1.19 µM) in [2]; 8 to 16 µg/mL (≈ 9.56 to 19.1 µM) in series [3]; 16 µg/mL (≈ 19.1 µM) in series [4]; 4 µg/mL (≈ 4.78 µM) in [5]; 2 µg/mL (≈ 2.39 µM) in [6] (setting [11]). Moreover, the MIC in series [6] (Table 6, S. aureus MSSA) amounted to 2 µg/mL (≈ 2.39 µM); in series [7] (setting [12]), 4 µg/mL (≈ 4.78 µM); in series [7] (Table 6, S. aureus MRSA-hVISA), 4 µg/mL (≈ 4.78 µM); in series [8] (setting [13]), 4 µg/mL (≈ 4.78 µM); in [8] (Table 6, S. epidermidis) it was 4 µg/mL (≈ 4.78 µM); in [9] (pH 5.0, read-out: MIC), 0.125 µg/mL (≈ 0.149 µM). Moreover, the MIC came to 0.25 µg/mL (≈ 0.299 µM) in series [9] (pH 6.0, read-out: MIC) and 1 µg/mL (≈ 1.19 µM) in series [9] (pH 7.0, read-out: MIC). Moreover, the “Acute toxicity: dose with no observable effect (high dose tolerability)” value in [10] (ip) was found to be 70 mg/kg; in series [10] (iv), 50 mg/kg.

In the case of `C\C(=C/C=C/C=C/C=C/C=C/C(C)C(OC1OC(C(=O)O)C(O)C(O)C1O)/C(C)=C/C(C)CCC/C=C/C(C)C/C=C/CCCNC(=N)N)C(=O)NC1=C(O)CCC1=O` (stereo not shown) [Compound 2, 6-{16-guanidino-1-[11-(2-hydroxy-5-oxocyclopent-1-enylcarbamoyl)-1-methyldodeca-2,4,6,8,10-pentaenyl]-2,4,10-trimethylhexadeca-2,8,12-trienyloxy}-3,4,5-trihydroxy-tetrahydro-pyran-2-carboxylic acid], the MIC in series [1] is 1 µg/mL (≈ 1.22 µM); in [2], 2 µg/mL (≈ 2.43 µM); in series [3], 16 µg/mL (≈ 19.4 µM); in [4], 16 µg/mL (≈ 19.4 µM); in series [5] it was 1 to 2 µg/mL (≈ 1.22 to 2.43 µM); in series [6] (setting [11]), 1 µg/mL (≈ 1.22 µM). Further, the MIC amounted to 1 µg/mL (≈ 1.22 µM) in [6] (Table 6, S. aureus MSSA); 1 µg/mL (≈ 1.22 µM) in series [7] (setting [12]); 1 µg/mL (≈ 1.22 µM) in series [7] (Table 6, S. aureus MRSA-hVISA); 1 µg/mL (≈ 1.22 µM) in series [8] (setting [13]); 1 µg/mL (≈ 1.22 µM) in [8] (Table 6, S. epidermidis); 0.0625 µg/mL (≈ 0.0759 µM) in series [9] (pH 5.0, read-out: MIC). Also, the MIC in series [9] (pH 6.0, read-out: MIC) is 0.125 µg/mL (≈ 0.152 µM); in [9] (pH 7.0, read-out: MIC), 1 µg/mL (≈ 1.22 µM). Besides, the “Acute toxicity: dose with no observable effect (high dose tolerability)” value in [10] (iv) worked out at 25 mg/kg.
